Reference: paper PMC12903969, “Discovery of a Novel and Potent Kir4.1 Inhibitor as a Safe and Rapid‐Onset Antidepressant Agent in Mice” (Advanced Science, 2025)
Like-named read-outs stand apart in the source and are kept apart here.

Key:
[1] = tested on: primary cortical astrocytes (native Kir4.1 channels); experiment: Patch clamp of primary cultured WT astrocytes (native Kir4.1); type: cell-based, mouse; conditions: JX3212 3 µM; BaCl2 100 µM
Protocol: Astrocytes were isolated and cultured as previously described.^[ [16] ^] Briefly, the cortices from P1‐P4 mouse pups were dissected and incubated for 25 min in Hank's Balanced Salt Solution (22.5 ml) with 2.5% trypsin (2.5 ml) at 37 °C. Cells were dissociated in cultured medium (DMEM/F12 supplemented with 10% fetal bovine serum and 1% penicillin and streptomycin) and filtered with a 70‐µm cell strainer. Cell suspensions were cultured in PDL‐pretreated 75‐cm^2 flasks for the initial seven days, with half of the medium replaced every 2 days. Subsequently, the cultures were shaken at 220 rpm for 6 h at 37 °C to remove microglia and oligodendrocytes from the astrocyte layers. The astrocytes were harvested, reseeded in two new flasks, and cultured in an incubator for 14 days. For Kir4.1 deletion in cell cultures, 4‐OH tamoxifen (final concentration: 1 µM, Felixbio) was added into Kir4.1^flox/flox: Aldh1l1‐Cre/ERT2 cortical cultures at DIV 2 and DIV 4, respectively, and completely removed at DIV7 when astrocytes were reseeded in fresh culture medium.
(§1) Whole‐cell patch‐clamp recordings were obtained either in transiently transfected CHO‐K1 cells or in primary cultured astrocytes at room temperature using standard patch‐clamp techniques with an Axopatch‐700B amplifier (Axon Instruments). The signals were filtered at 2 kHz and sampled at 20 kHz using the Digidata 1440A interface (Axon Instruments). The resistance of borosilicate glass pipettes was typically 2–4 MΩ when filled with the internal solution. Drug application was facilitated using a BPS perfusion system (ALA Scientific Instruments). Macroscopic currents generated by expressed potassium channels were recorded under the voltage‐clamp conditions with an internal pipette solution composed of (in mM): 140 KCl, 5 NaCl, 1 CaCl2, 1 MgCl2, 10 HEPES, and 10 EGTA, pH 7.2 adjusted with KOH. The external solution contained (in mM): 140 NaCl, 5 KCl, 2 CaCl2, 1 MgCl2, 10 glucose, and 10 HEPES, pH 7.4 adjusted with NaOH. Currents were elicited with a hyperpolarized voltage at −120 mV from the holding potential of −80 mV, followed by a ramp voltage depolarizing to +50 mV. Astrocytic resting membrane potentials were recorded under current‐clamp conditions (I = 0 pA) using standard internal and external solutions, determined immediately after achieving whole‐cell mode.

[2] = tested on: MDA-MB-468 breast cancer cells; experiment: Cytotoxicity test (CCK-8); type: cell-based; conditions: read-out: IC50 ± SD (μM) for MDA-MB-468 Inhibition
Protocol: Cytotoxicity of all the tested compounds was determined using the cell counting kit‐8 (CCK‐8) assay kit (Beyotime, Shanghai, China). Briefly, MDA‐MB‐468 was cultured in L15 medium and plated in 96‐well plates at a density of 12,000 cells per well for 24 h at 37 °C in a 5% CO2 incubator. The tested compounds were dissolved in DMSO and diluted with culture medium (DMSO final concentration < 0.4%). Then the cells were treated with compounds (0.41, 1.23, 3.70, 11.11, 33.33, 100.00 µM) for 48 h. After treatments, removal of the supernatant liquor, 100 µL of new media diluted CCK‐8 solution (10% CCK‐8) was added into each well and incubated at 37 °C for 2 h. The absorbance of the mixture was directly measured at 450 nm. The results are presented as a percentage of the control.

[3] = biological target: T1, Kir4.1 (Homo sapiens, UniProt P78508); experiment: Whole-cell patch clamp, Kir4.1 currents in transfected CHO-K1 cells; type: cell-based; conditions: for inhibition at 1 µM: CHO-K1, 1 μM; for inhibition at 10 µM: CHO-K1, 10 μM
T1 construct: host or cells: CHO-K1
T1 sequence (P78508 1-379): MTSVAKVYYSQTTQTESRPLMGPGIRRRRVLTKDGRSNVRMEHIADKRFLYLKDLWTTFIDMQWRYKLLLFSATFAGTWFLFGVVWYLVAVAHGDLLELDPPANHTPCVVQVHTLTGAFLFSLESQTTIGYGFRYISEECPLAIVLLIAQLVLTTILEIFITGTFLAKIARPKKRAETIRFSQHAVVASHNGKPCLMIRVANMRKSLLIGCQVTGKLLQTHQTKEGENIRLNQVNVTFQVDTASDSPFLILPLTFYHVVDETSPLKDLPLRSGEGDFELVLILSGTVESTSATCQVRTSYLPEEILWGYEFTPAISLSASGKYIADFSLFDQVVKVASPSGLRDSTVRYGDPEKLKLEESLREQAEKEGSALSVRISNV
Protocol: Plasmids encoding WT human potassium channels Kir1.1, Kir2.1, Kir2.2, Kir4.1, and Kir4.2 were obtained from the Beijing Genomics Institute. All point mutations were constructed using the QuickChange II Site‐Directed Mutagenesis Kit (Stratagene) and subsequently verified by sequencing.
CHO‐K1 cells were maintained in DMEM/F12 growth medium containing 10% fetal bovine serum. Plasmids encoding the target genes (3600 ng) and enhanced green fluorescent protein (400 ng) were cotransfected into cells using Lipofectamine 2000 (Invitrogen) in accordance with the manufacturer's instructions. Cells were seeded onto poly‐d‐lysine (PDL)‐coated glass coverslips 1 h prior to electrophysiological recordings. All cells were cultured under standard conditions of 5% CO2 at 37 °C.
as §1

[4] = Homo sapiens, MDA-MB-468, MDA-MB-468 breast cancer cells
[5] = CHO-K1, 0.5 μM, +50 mV, read-out: Kir4.1 Inhibition ± SD (%) at 0.5 μM, +50 mV
[6] = CHO-K1, 0.5 μM, -120 mV, read-out: Kir4.1 Inhibition ± SD (%) at 0.5 μM, -120 mV
[7] = +50 mV, read-out: Kir4.1 Inhibition ± SD (%) at 1 μM, +50 mV
[8] = -120 mV, read-out: Kir4.1 Inhibition ± SD (%) at 1 μM, -120 mV
[9] = +50 mV, read-out: Kir4.1 Inhibition ± SD (%) at 10 μM, +50 mV
[10] = -120 mV, read-out: Kir4.1 Inhibition ± SD (%) at 10 μM, -120 mV

Molecule | astrocytic resting membrane potential (in words) [1] | IC50 [2, 4] | inhibition at 0.5 µM [3, 5] | inhibition at 0.5 µM [3, 6] | inhibition at 1 µM [3, 7] | inhibition at 1 µM [3, 8] | inhibition at 10 µM [3, 9] | inhibition at 10 µM [3, 10] | inhibition at 0.5 µM ([3]; CHO-K1, 0.5 µM, read-out: Kir4.1 inhibition at 0.5 µM) | IC50 ([2]; MDA-MB-468 breast cancer cells) | Kir4.1 Inhibition ± SD (%) at 1 μM, +50 mV ([3]; 1 μM, +50 mV) | Kir4.1 Inhibition ± SD (%) at 1 μM, -120 mV ([3]; 1 μM, -120 mV) | Kir4.1 Inhibition ± SD (%) at 10 μM, +50 mV ([3]; 10 μM, +50 mV) | Kir4.1 Inhibition ± SD (%) at 10 μM, -120 mV ([3]; 10 μM, -120 mV)
[Ba+2].[Cl-].[Cl-] [BaCl2, reference compound] | marked depolarization |  |  |  |  |  |  |  |  |  |  |  |  | 
CC1(C)C2CN(CCCNc3nccc(Nc4ccc5oc6ccccc6c5c4)n3)CC21 (stereo not shown) [JX3240, N^4-(dibenzo[b,d]furan-2-yl)-N^2-(3-(6,6-dimethyl-3-azabicyclo[3.1.0]hexan-3-yl)propyl)pyrimidine-2,4-diamine] |  | 5.37 ± 0.22 µM | -0.92 ± 3.58% | -0.29 ± 1.05% | 90 ± 1.44% | 84.7 ± 4.13% | 97.46 ± 0.83% | 97.35 ± 0.65% |  |  |  |  |  | 
O=C(NCCCNc1nccc(Nc2ccc3oc4ccccc4c3c2)n1)N1CCOCC1 [JX3241, N-(3-((4-(dibenzo[b,d]furan-2-ylamino)pyrimidin-2-yl)amino)propyl)morpholine-4-carboxamide] |  | 21.1 ± 1.53 µM |  |  | 4.09 ± 2.08% | 1.97 ± 2.44% | 84.2 ± 2.69% | 59.5 ± 3.66% |  |  |  |  |  | 
C[C@@H]1CN(CCCNc2nccc(Nc3ccc4oc5ccccc5c4c3)n2)C[C@H](C)O1 [JX3242, N^4-(dibenzo[b,d]furan-2-yl)-N^2-(3-((2S,6R)-2,6-dimethylmorpholino)propyl)pyrimidine-2,4-diamine] |  | 5.38 ± 0.11 µM |  |  | -0.93 ± 7.76% | -3.38 ± 9.3% | 97.5 ± 1.92% | 94.2 ± 1.77% |  |  |  |  |  | 
c1ccc2c(c1)oc1ccc(Nc3ccnc(NCCCN4CCSCC4)n3)cc12 [JX3243, N^4-(dibenzo[b,d]furan-2-yl)-N^2-(3-thiomorpholinopropyl)pyrimidine-2,4-diamine] |  | 7.11 ± 0.62 µM |  |  | -1.39 ± 1.64% | 0.17 ± 1.63% | 98.74 ± 0.36% | 98.6 ± 0.56% |  |  |  |  |  | 
c1ccc2c(c1)oc1ccc(Nc3ccnc(NCCCN4CCCCC4)n3)cc12 [JX3244, N^4-(dibenzo[b,d]furan-2-yl)-N^2-(3-(piperidin-1-yl)propyl)pyrimidine-2,4-diamine] |  | 6.86 ± 0.23 µM | 74.9 ± 2.12% | 63 ± 5.95% | 85.4 ± 3.98% | 74.5 ± 6.63% | 98.66 ± 0.25% | 97 ± 1.09% | > 60% |  |  |  |  | 
CC1CCN(CCCNc2nccc(Nc3ccc4oc5ccccc5c4c3)n2)CC1 [JX3245, N^4-(dibenzo[b,d]furan-2-yl)-N^2-(3-(4-methylpiperidin-1-yl)propyl)pyrimidine-2,4-diamine] |  | 5.95 ± 0.04 µM | 21.4 ± 6.07% | 9.76 ± 2.44% | 96.35 ± 0.66% | 92.48 ± 0.8% | 96.84 ± 0.61% | 95.5 ± 2.8% |  |  |  |  |  | 
COC1CCN(CCCNc2nccc(Nc3ccc4oc5ccccc5c4c3)n2)CC1 [JX3246, N^4-(dibenzo[b,d]furan-2-yl)-N^2-(3-(4-methoxypiperidin-1-yl)propyl)pyrimidine-2,4-diamine] |  | 9.97 ± 0.62 µM |  |  | 73 ± 5.77% | 55.4 ± 3.73% | 91.3 ± 3.5% | 89.5 ± 2.33% |  |  |  |  |  | 
CC1CC(C)CN(CCCNc2nccc(Nc3ccc4oc5ccccc5c4c3)n2)C1 (stereo not shown) [JX3247, N^4-(dibenzo[b,d]furan-2-yl)-N^2-(3-(3,5-dimethylpiperidin-1-yl)propyl)pyrimidine-2,4-diamine] |  | 6.03 ± 0.24 µM |  |  | 80.4 ± 8.36% | 66.6 ± 2.75% | 97.75 ± 0.84% | 94.2 ± 2.26% |  |  |  |  |  | 
c1ccc2c(c1)oc1ccc(Nc3ccnc(NCCCN4CCN(C5COC5)CC4)n3)cc12 [JX3248, N^4-(dibenzo[b,d]furan-2-yl)-N^2-(3-(4-(oxetan-3-yl)piperazin-1-yl)propyl)pyrimidine-2,4-diamine] |  | > 50 µM |  |  | 21.9 ± 8.36% | 11.5 ± 6.63% | 97.46 ± 0.59% | 81.5 ± 2.87% |  |  |  |  |  | 
c1ccc2c(c1)oc1ccc(Nc3ccnc(NCCCN4CCCCCC4)n3)cc12 [JX3249, N^2-(3-(azepan-1-yl)propyl)-N^4-(dibenzo[b,d]furan-2-yl)pyrimidine-2,4-diamine] |  | 5.1 ± 0.21 µM | 56 ± 5.59% | 46.4 ± 8.18% | 92.4 ± 1.44% | 82.2 ± 2.24% | 98.49 ± 0.04% | 94.9 ± 1.88% |  |  |  |  |  | 
c1ccc2c(c1)oc1ccc(Nc3ccnc(NCCCN4CCCOCC4)n3)cc12 [JX3250, N^2-(3-(1,4-oxazepan-4-yl)propyl)-N^4-(dibenzo[b,d]furan-2-yl)pyrimidine-2,4-diamine] |  | 12.2 ± 0.87 µM |  |  | 44 ± 9.96% | 30.4 ± 8.64% | 97.4 ± 1.14% | 88.3 ± 4.59% |  |  |  |  |  | 
N^4-(1H-indol-5-yl)-N^2-(3-morpholinopropyl)pyrimidine-2,4-diamine [JX3207] |  |  |  |  |  |  |  |  |  | 12.3 ± 1.32 µM | 30.53 ± 6.87% | 27.52 ± 8.17% | 93.00 ± 1.73% | 92.47 ± 0.40%
